≈ marks a conversion by molar mass, not a printed value. Where no end group is shown, it is not given here.
Assays:
Experiment in all cases: microbe, parasite or virus in culture
Format in all cases: cell-based
[1] = test system: Staphylococcus aureus (ATCC 9144)
Procedure: (§1) The synthesized peptides were screened for antibacterial activity against five strains of G+ bacteria: B. subtilis (Bs, ATCC 23857), C. glutamicum (Cg, ATCC 13032), S. aureus (Sa, ATCC 9144), Micrococcus luteus (Ml), B. megaterium (Bm) (the last two were obtained from professor Olaf B. Styrvold, UiT The Arctic University of Norway).
(§2) Two strains of G- bacteria, P. aeruginosa (Pa, ATCC 27853) and E. coli (Ec, ATCC 25922), were also used. Cultures stored at -80 °C in glycerol were transferred to Müller–Hinton plates (MH, Difco Laboratories, Detroit, MI, USA) and incubated for 24 h at 35 °C. Colonies of each strain were transferred to 5 mL liquid MH medium and left shaking (600 rpm) at room temperature overnight. An aliquot of actively growing bacteria (20 µL) was inoculated in 5 mL MH medium and left shaking for 2 h at room temperature. In order to have a sensitive bioassay, the bacterial cultures were diluted with medium to only 2.5–3 × 10^4 bacteria/mL and an aliquot of 50 µL was added to each well in 96 microwell plates (Thermo Fisher Scientific, Roskilde, Denmark) preloaded with peptide solution (50 µL). The antibacterial assays were performed as previously described. The microtiter plates were incubated for 24 h at 35 °C with optical density (595 nm) recorded every hour using an Envision 2103 multilabel reader, controlled by a Wallac Envision manager (PerkinElmer, Waltham, MA, USA). The minimum inhibitory concentration (MIC) was defined as the sample concentration showing an optical density less than 10% of the negative (growth) control, consisting of bacteria and MQ-H2O. Oxytetracycline (concentrations ranging from 20–0.02 µg/mL, Sigma-Aldrich) and indolicidin (concentration ranging from 200–0.2 µg/mL, Sigma-Aldrich) served as a positive (inhibition) control. The synthetic peptides were tested for antibacterial activity in concentrations ranging from 250 to 0.5 µg/mL in two-fold dilutions. All tests were performed in triplicates.

Bacillus megaterium = test system: Bacillus megaterium
Procedure: as §1, §2

Micrococcus luteus = test system: Micrococcus luteus
Procedure: as §1, §2

[2] = test system: Bacillus subtilis (ATCC 23857)
Procedure: as §1, §2

[3] = test system: Corynebacterium glutamicum (ATCC 13032)
Procedure: as §1, §2

[4] = test system: Escherichia coli (ATCC 25922)
Procedure: as §2

[5] = test system: Pseudomonas aeruginosa (ATCC 27853)
Procedure: as §2

Rhodotorula sp. = test system: Rhodotorula sp.
Procedure: (§3) StAMP-1–11 were screened for antifungal activity against C. albicans (Ca, ATCC 10231), A. pullulans (Ap) and Rhodotorula sp. (Rh) (the last two were obtained from professor Arne Tronsmo, The Norwegian University of Life Sciences, Ås, Norway). The antifungal assay was performed as previously described with a few modifications. Briefly, fungal spores were dissolved in potato dextrose broth (Difco Laboratories) with 2% D(+)-glucose (Merck, Darmstadt, Germany) to a concentration of 4 × 10^5 spores/mL. The spores (50 µL) were inoculated on 96 microwell plates (Thermo Fisher Scientific) containing the synthetic peptides (50 µL) and controls (water or antibiotic). The peptides were diluted in MQ-H2O at final concentrations ranging from 250–3.9 µg/mL in two-fold serial dilutions. Triclosan (Sigma-Aldrich, Steinheim, Germany) was used as a positive (antifungal) control (32–0.25 µg/mL), and MQ-H2O as a negative (growth) control. Cultures were grown in room temperature for 24 h (Ca) and 48 h (Ap and Rh). Growth inhibition was determined by measuring OD values at 600 nm by a microplate reader (Synergy H1 Hybrid Multi-Mode Reader, BioTek, Winooski, VT, USA). […] All experiments were done in triplicate.

Aureobasidium pullulans = test system: Aureobasidium pullulans
Procedure: as §3

[6] = test system: Candida albicans (ATCC 10231)
Procedure: as §3

[7] = potato dextrose broth with 2% glucose, room temperature 48 h, OD 600 nm, >90% inhibition, triplicate

Molecule | Antimicrobial Activity (MIC) Sa ([1]; ATCC 9144, 24 h) | Antimicrobial Activity (MIC) Bm (Bacillus megaterium; Bacillus, 24 h) | Antimicrobial Activity (MIC) Ml (Micrococcus luteus; 24 h) | Antimicrobial Activity (MIC) Bs ([2]; ATCC 23857, 24 h) | Antimicrobial Activity (MIC) Cg ([3]; ATCC 13032, 24 h) | Antimicrobial Activity (MIC) Rh (Rhodotorula sp.; 48 h) | Antimicrobial Activity (MIC) Ap (Aureobasidium pullulans; 48 h) | Antimicrobial Activity (MIC) Ca ([6]; ATCC 10231, 24 h) | Antimicrobial Activity (MIC) Ec ([4]; ATCC 25922, 24 h) | Antimicrobial Activity (MIC) Pa ([5]; ATCC 27853, 24 h) | other results
CN(C)[C@@H]1C(O)=C(C(N)=O)C(=O)[C@@]2(O)C(O)=C3C(=O)c4c(O)cccc4[C@@](C)(O)[C@H]3[C@H](O)[C@@H]12 [Oxytetracycline, reference compound] | – | – | – | – | – | – | – | – | – | – | MIC ([1]; ATCC9144, Staphylococcus aureus, MH medium, 24 h at 35 °C, OD 595 nm <10% of growth control, triplicates, read-out: Antimicrobial Activity (MIC) Sa): 0.04 µg/mL (≈ 0.0869 µM); MIC (Bacillus megaterium; Priestia megaterium, Bacillus megaterium, MH medium, 24 h at 35 °C, OD 595 nm <10% of growth control, triplicates, read-out: Antimicrobial Activity (MIC) Bm): 0.6 µg/mL (≈ 1.3 µM); MIC (Micrococcus luteus; Micrococcus luteus, MH medium, 24 h at 35 °C, OD 595 nm <10% of growth control, triplicates, read-out: Antimicrobial Activity (MIC) Ml): 1.3 µg/mL (≈ 2.82 µM); MIC ([2]; ATCC23857, Bacillus subtilis, MH medium, 24 h at 35 °C, OD 595 nm <10% of growth control, triplicates, read-out: Antimicrobial Activity (MIC) Bs): 10 µg/mL (≈ 21.7 µM); MIC ([3]; ATCC13032, Corynebacterium glutamicum, MH medium, 24 h at 35 °C, OD 595 nm <10% of growth control, triplicates, read-out: Antimicrobial Activity (MIC) Cg): 0.2 µg/mL (≈ 0.434 µM); MIC ([4]; ATCC25922, Escherichia coli, MH medium, 24 h at 35 °C, OD 595 nm <10% of growth control, triplicates, read-out: Antimicrobial Activity (MIC) Ec): 1.3 µg/mL (≈ 2.82 µM); MIC ([5]; ATCC27853, Pseudomonas aeruginosa, MH medium, 24 h at 35 °C, OD 595 nm <10% of growth control, triplicates, read-out: Antimicrobial Activity (MIC) Pa): 2.5 µg/mL (≈ 5.43 µM)
Oc1cc(Cl)ccc1Oc1ccc(Cl)cc1Cl [Triclosan, reference compound] | – | – | – | – | – | – | – | – | – | – | MIC (Rhodotorula sp.; Rhodotorula, 48 h, read-out: Antimicrobial Activity (MIC) Rh): 1.6 µg/mL; MIC (Aureobasidium pullulans; Aureobasidium pullulans, 48 h, read-out: Antimicrobial Activity (MIC) Ap): 3.1 µg/mL; MIC ([6]; Candida albicans, ATCC10231, 24 h, read-out: Antimicrobial Activity (MIC) Ca): 3.1 µg/mL
GRRPLLLRAR-NH2 [StAMP-11] | >250 µg/mL | 7.8 µg/mL | 62.5 µg/mL | >250 µg/mL | 31.3 µg/mL | 31.3 µg/mL | 250 µg/mL | 125 µg/mL | >250 µg/mL | >250 µg/mL | –
GKKPGWWKAK-NH2 [StAMP-4] | >250 µg/mL | 3.9 µg/mL | 125 µg/mL | 125 µg/mL | 3.9 µg/mL | 31.3 µg/mL | 62.5 µg/mL | 62.5 µg/mL | >250 µg/mL | >250 µg/mL | –
GKKWWGWKAK-NH2 [StAMP-5] | >250 µg/mL | 1.0 µg/mL | 15.6 µg/mL | 15.6 µg/mL | 2.0 µg/mL | 15.6 µg/mL | 31.3 µg/mL | 31.3 µg/mL | 31.3 µg/mL | 250 µg/mL | –
GKKPGGWKAK-NH2 [StAMP-1] | >250 µg/mL | 250 µg/mL | >250 µg/mL | >250 µg/mL | 250 µg/mL | >250 µg/mL | >250 µg/mL | >250 µg/mL | >250 µg/mL | >250 µg/mL | –
CC[C@H](C)[C@H](N)C(=O)N[C@@H](CC(C)C)C(=O)N1CCC[C@H]1C(=O)N[C@@H](Cc1c[nH]c2ccccc12)C(=O)N[C@@H](CCCCN)C(=O)N[C@@H](Cc1c[nH]c2ccccc12)C(=O)N1CCC[C@H]1C(=O)N[C@@H](Cc1c[nH]c2ccccc12)C(=O)N[C@@H](Cc1c[nH]c2ccccc12)C(=O)N1CCC[C@H]1C(=O)N[C@@H](Cc1c[nH]c2ccccc12)C(=O)N[C@@H](CCCNC(=N)N)C(=O)N[C@@H](CCCNC(=N)N)C(N)=O [Indolicidin, reference compound] | – | – | – | – | – | – | – | – | – | – | Antimicrobial Activity (MIC) Sa ([1]; Staphylococcus aureus, MH medium, 24 h at 35 °C, OD 595 nm <10% of growth control, triplicates): 12.5 µg/mL; Antimicrobial Activity (MIC) Bm (Bacillus megaterium; Bacillus megaterium, MH medium, 24 h at 35 °C, OD 595 nm <10% of growth control, triplicates): 3.1 µg/mL; Antimicrobial Activity (MIC) Ml (Micrococcus luteus; Micrococcus luteus, MH medium, 24 h at 35 °C, OD 595 nm <10% of growth control, triplicates): 12.5 µg/mL; Antimicrobial Activity (MIC) Bs ([2]; Bacillus subtilis, MH medium, 24 h at 35 °C, OD 595 nm <10% of growth control, triplicates): 6.3 µg/mL; Antimicrobial Activity (MIC) Cg ([3]; Corynebacterium glutamicum, MH medium, 24 h at 35 °C, OD 595 nm <10% of growth control, triplicates): 1.6 µg/mL; Antimicrobial Activity (MIC) Rh (Rhodotorula sp.; [7]): 25.0 µg/mL; Antimicrobial Activity (MIC) Ap (Aureobasidium pullulans; [7]): 25.0 µg/mL; Antimicrobial Activity (MIC) Ca ([6]; potato dextrose broth with 2% glucose, room temperature 24 h, OD 600 nm, >90% inhibition, triplicate): 100 µg/mL; Antimicrobial Activity (MIC) Ec ([4]; Escherichia coli, MH medium, 24 h at 35 °C, OD 595 nm <10% of growth control, triplicates): 25.0 µg/mL; Antimicrobial Activity (MIC) Pa ([5]; Pseudomonas aeruginosa, MH medium, 24 h at 35 °C, OD 595 nm <10% of growth control, triplicates): >250 µg/mL
GKKPWGWKAK-NH2 [StAMP-3] | >250 µg/mL | 3.9 µg/mL | 250 µg/mL | >250 µg/mL | 15.6 µg/mL | 62.5 µg/mL | 62.5 µg/mL | 125 µg/mL | >250 µg/mL | >250 µg/mL | –
GKKWGWWKAK-NH2 [StAMP-6] | 250 µg/mL | 1.0 µg/mL | 62.5 µg/mL | 3.9 µg/mL | 3.9 µg/mL | 31.3 µg/mL | 62.5 µg/mL | 62.5 µg/mL | 62.5 µg/mL | >250 µg/mL | –
